This assay has as its system NL4-3 strain of HIV-1. In words: Inhibition of HIV replication: cyto-protection in Cell-Titer-Glo viability assay, MT4 cells infected with NL4-3 virus. The format is cell-based. Particulars: Human immunodeficiency virus 1, NL43, 120 h, concentration leading to 50% of cyto-protection, 5 days incubation, CellTiter-Glo luminescence. The procedure:
The antiviral activity, particularly against HIV, of compounds according to the invention is evaluated by the protocol described below.
Preparation of Virus Stock of the NL4-3 Strain of HIV-1 (Adachi et al, J Virol, 1986, 59(2):284-91).
The virus was prepared as described in Lopez et al (Lopez et al, Proc Natl Acad Sci USA., 2006, 103(40):14947-52, by transfecting 2×10^6 293 T cells (CRL-1573, ATCC) with following modifications: 6 μg of NL4-3 proviral DNA molecular clone were mixed with Fugene 6 transfection reagent from Roche, and used according to manufacturer's instructions. Forty eight hours later, transfected cell supernatants were harvested, filtered through 0.45-μm-pore-size filters, quantified for HIV-1 p24 antigen by using a Innotest HIV antigen mAb assay (Ingen) according to manufacturer's instructions, and used in infection experiments.
Serial dilutions of compounds to be tested were prepared in complete RPMI medium from 10 mM DMSO stock solutions, and distributed in a volume of 20 μL in 96 well Falcon 353072 Microtest™ tissue culture plate, in order to get 0.5% DMSO final concentration in each well, after the addition of infected cells. Control wells contained also 0.5% DMSO final concentration but no compound.
MT^4 cells (from the NIH AIDS Research and Reference Reagent Program) in RPMI complete medium were counted (10×10^6 cells per well in Falcon 353047 Multiwell™ 24 well) and infected for 2 hours at 37°, at a multiplicity of infection (moi) of 0.0001-0.00001. Cells were then centrifuged 3 min at 3000 rpm, and washed two times in 1 ml PBS to remove viruses that have not entered in cells. Infected cells were resuspended in complete RPMI at 1.25×10^6 cells/ml, and 80 μl of infected cells were distributed in each well containing compounds to be tested or control wells. The plates were then incubated at 37° for 5 days.
Assay Used to Measure the Inhibition of HIV Replication by the Compounds (According to (According to Gregg S. Jones et al., Antimicrobial Agents and Chemotherapy, 2009, 53 (3): 1194-1203).
After 5 days of incubation, 50 μl of CellTiter-Glo reagent (Promega Biosciences, Inc., Madison Wis., USA) were added to each well. Cell lysis was carried out at room temperature during 10 min, 150 μl of lysates were transferred in Packard Optiplate 96 well, and luminescence was read on a Fluoroskan (Thermo Scientific).
The EC50, or effective concentration 50, is the concentration of compound leading to 50% of cyto-protection in a Cell-Titer-Glo® viability assay based on MT^4 cells infected with NL4-3 virus (table 1).
(In general: ATP-based viability assays read luminescence as a measure of living cells.)
`CC(C)(C)OC(C(=O)O)c1c(C(F)(F)F)ccc(-c2ccccc2)c1-c1ccc2c(c1)CCCO2` (stereo not drawn) [Example 1, 2-(tert-butoxy)-2-[2-(3,4-dihydro-2H-1-benzopyran-6-yl)-3-phenyl-6-(trifluoromethyl)phenyl]acetic acid] came in with an EC50 of 260 nM. The value for `CC(C)(C)OC(C(=O)O)c1c(C(F)(F)F)ccc(-c2ccncc2)c1-c1ccc2c(c1)CCCO2` (stereo not drawn) [Example 2, 2-(tert-butoxy)-2-[2-(3,4-dihydro-2H-1-benzopyran-6-yl)-3-(pyridin-4-yl)-6-(trifluoromethyl)phenyl]acetic acid] was 250 nM; that for `CC(C)(C)OC(C(=O)O)c1c(C(F)(F)F)ccc(C2=CCCC2)c1-c1ccc2c(c1)CCCO2` (stereo not drawn) [Example 3, 2-(tert-butoxy)-2-[3-(cyclopent-1-en-1-yl)-2-(3,4-dihydro-2H-1-benzopyran-6-yl)-6-(trifluoromethyl)phenyl]acetic acid] was 400 nM. The value for `Cn1cc(-c2ccc(C(F)(F)F)c(C(OC(C)(C)C)C(=O)O)c2-c2ccc3c(c2)CCCO3)cn1` (stereo not drawn) [Example 4, 2-(tert-butoxy)-2-[2-(3,4-dihydro-2H-1-benzopyran-6-yl)-3-(1-methyl-1H-pyrazol-4-yl)-6-(trifluoromethyl)phenyl]acetic acid] was 120 nM; that for `CC(C)(C)OC(C(=O)O)c1c(C(F)(F)F)ccc(-n2ccc(-c3ccccc3)n2)c1-c1ccc2c(c1)CCCO2` (stereo not drawn) [Example 5, 2-(tert-butoxy)-2-[2-(3,4-dihydro-2H-1-benzopyran-6-yl)-3-(3-phenyl-1H-pyrazol-1-yl)-6-(trifluoromethyl)phenyl]acetic acid] was 760 nM. As for `CC(C)(C)OC(C(=O)O)c1c(C(F)(F)F)ccc(-c2ccnc(OCc3ccccc3)c2)c1-c1ccc2c(c1)CCCO2` (stereo not drawn) [Example 6, 2-{3-[2-(benzyloxy)pyridin-4-yl]-2-(3,4-dihydro-2H-1-benzopyran-6-yl)-6-(trifluoromethyl)phenyl}-2-(tert-butoxy)acetic acid], the figure is 260 nM.

With `CC(C)(C)OC(C(=O)O)c1c(C(F)(F)F)ccc(-c2cccs2)c1-c1ccc2c(c1)CCCO2` (stereo not drawn) [Example 7, 2-(tert-butoxy)-2-[2-(3,4-dihydro-2H-1-benzopyran-6-yl)-3-(thiophen-2-yl)-6-(trifluoromethyl)phenyl]acetic acid], the response was half-maximal at 300 nM (EC50). The value for `COc1ccc(-c2ccc(C(F)(F)F)c(C(OC(C)(C)C)C(=O)O)c2-c2ccc3c(c2)CCCO3)cc1` (stereo not drawn) [Example 8, 2-(tert-butoxy)-2-[2-(3,4-dihydro-2H-1-benzopyran-6-yl)-3-(4-methoxyphenyl)-6-(trifluoromethyl)phenyl]acetic acid] was 240 nM; that for `CC(C)(C)OC(C(=O)O)c1c(C(F)(F)F)ccc(-n2cc(Br)cn2)c1-c1ccc2c(c1)CCCO2` (stereo not drawn) [Example 9, 2-[3-(4-bromo-1H-pyrazol-1-yl)-2-(3,4-dihydro-2H-1-benzopyran-6-yl)-6-(trifluoromethyl)phenyl]-2-(tert-butoxy)acetic acid] was 360 nM. As for `CC(C)(C)OC(C(=O)O)c1c(C(F)(F)F)ccc(-n2cc(Cl)cn2)c1-c1ccc2c(c1)CCCO2` (stereo not drawn) [Example 10, 2-[3-(4-chloro-1H-pyrazol-1-yl)-2-(3,4-dihydro-2H-1-benzopyran-6-yl)-6-(trifluoromethyl)phenyl]-2-(tert-butoxy)acetic acid], the figure is 480 nM.

The molecule `CC1(C)CC=C(c2c(-c3ccncc3)ccc(C(F)(F)F)c2C(OC(C)(C)C)C(=O)O)CC1` (stereo not drawn) [Example 11, 2-(tert-butoxy)-2-[2-(4,4-dimethylcyclohex-1-en-1-yl)-3-(pyridin-4-yl)-6-(trifluoromethyl)phenyl]acetic acid] yielded an EC50 of 910 nM. The value for `CC(C)(C)OC(C(=O)O)c1c(C(F)(F)F)ccc(-c2cnn3ccccc23)c1-c1ccc2c(c1)CCCO2` (stereo not drawn) [Example 12, 2-(tert-butoxy)-2-[2-(3,4-dihydro-2H-1-benzopyran-6-yl)-3-{pyrazolo[1,5-a]pyridin-3-yl}-6-(trifluoromethyl)phenyl]acetic acid] was 420 nM; that for `CC(C)(C)OC(C(=O)O)c1c(C(F)(F)F)ccc(-c2ccc(C(N)=O)cc2)c1-c1ccc2c(c1)CCCO2` (stereo not drawn) [Example 13, 2-(tert-butoxy)-2-[3-(4-carbamoylphenyl)-2-(3,4-dihydro-2H-1-benzopyran-6-yl)-6-(trifluoromethyl)phenyl]acetic acid] was 830 nM; that for `CC(C)(C)OC(C(=O)O)c1c(C(F)(F)F)ccc(-c2cccc(C(N)=O)c2)c1-c1ccc2c(c1)CCCO2` (stereo not drawn) [Example 14, 2-(tert-butoxy)-2-[3-(3-carbamoylphenyl)-2-(3,4-dihydro-2H-1-benzopyran-6-yl)-6-(trifluoromethyl)phenyl]acetic acid] was 780 nM. The value for `Cn1cc(-c2ccc(C(F)(F)F)c(C(OC(C)(C)C)C(=O)O)c2C2=CCC(C)(C)CC2)cn1` (stereo not drawn) [Example 15, 2-(tert-butoxy)-2-[2-(4,4-dimethylcyclohex-1-en-1-yl)-3-(1-methyl-1H-pyrazol-4-yl)-6-(trifluoromethyl)phenyl]acetic acid] was 150 nM; that for `CC(C)(C)OC(C(=O)O)c1c(C(F)(F)F)ccc(-c2ccncn2)c1-c1ccc2c(c1)CCCO2` (stereo not drawn) [Example 16, 2-(tert-butoxy)-2-[2-(3,4-dihydro-2H-1-benzopyran-6-yl)-3-(pyrimidin-4-yl)-6-(trifluoromethyl)phenyl]acetic acid] was 940 nM. Regarding `CC(C)(C)OC(C(=O)O)c1c(C(F)(F)F)ccc(-c2ccncc2F)c1-c1ccc2c(c1)CCCO2` (stereo not drawn) [Example 17, 2-(tert-butoxy)-2-[2-(3,4-dihydro-2H-1-benzopyran-6-yl)-3-(3-fluoropyridin-4-yl)-6-(trifluoromethyl)phenyl]acetic acid], the EC50 was found to be 250 nM. This EC50 is about 3.8-fold lower than that of the molecule before.

Consider `CNC(=O)c1ccc(-c2ccc(C(F)(F)F)c(C(OC(C)(C)C)C(=O)O)c2-c2ccc3c(c2)CCCO3)cc1` (stereo not drawn) [Example 19, 2-(tert-butoxy)-2-[2-(3,4-dihydro-2H-1-benzopyran-6-yl)-3-[4-(methylcarbamoyl)phenyl]-6-(trifluoromethyl)phenyl]acetic acid], for which the EC50 is 330 nM. This EC50 and that of the molecule before are within 1.5-fold of each other. The value for `CC(C)(C)OC(C(=O)O)c1c(C(F)(F)F)ccc(-c2ccc(N)cc2)c1-c1ccc2c(c1)CCCO2` (stereo not drawn) [Example 20, 2-[3-(4-aminophenyl)-2-(3,4-dihydro-2H-1-benzopyran-6-yl)-6-(trifluoromethyl)phenyl]-2-(tert-butoxy)acetic acid] was 150 nM; that for `CC(=O)Nc1ccc(-c2ccc(C(F)(F)F)c(C(OC(C)(C)C)C(=O)O)c2-c2ccc3c(c2)CCCO3)cc1` (stereo not drawn) [Example 21, 2-(tert-butoxy)-2-[3-(4-acetamidophenyl)-2-(3,4-dihydro-2H-1-benzopyran-6-yl)-6-(trifluoromethyl)phenyl]acetic acid] was 170 nM.

`CC(C)(C)OC(C(=O)O)c1c(C(F)(F)F)ccc(-c2cnn(CC(F)(F)F)c2)c1-c1ccc2c(c1)CCCO2` (stereo not drawn) [Example 22, 2-(tert-butoxy)-2-{2-(3,4-dihydro-2H-1-benzopyran-6-yl)-3-[1-(2,2,2-trifluoroethyl)-1H-pyrazol-4-yl]-6-(trifluoromethyl)phenyl}acetic acid] showed a concentration giving a half-maximal response (EC50) of 320 nM. This EC50 is about 1.9-fold higher than that of the molecule before. The value for `CC(C)(C)OC(C(=O)O)c1c(C(F)(F)F)ccc(-c2cccc(N)c2)c1-c1ccc2c(c1)CCCO2` (stereo not drawn) [Example 23, 2-[3-(3-aminophenyl)-2-(3,4-dihydro-2H-1-benzopyran-6-yl)-6-(trifluoromethyl)phenyl]-2-(tert-butoxy)acetic acid] was 190 nM; that for `CC(=O)Nc1cccc(-c2ccc(C(F)(F)F)c(C(OC(C)(C)C)C(=O)O)c2-c2ccc3c(c2)CCCO3)c1` (stereo not drawn) [Example 24, 2-(tert-butoxy)-2-[3-(3-acetamidophenyl)-2-(3,4-dihydro-2H-1-benzopyran-6-yl)-6-(trifluoromethyl)phenyl]acetic acid] was 290 nM. As for `CCCn1cc(-c2ccc(C(F)(F)F)c(C(OC(C)(C)C)C(=O)O)c2-c2ccc3c(c2)CCCO3)ccc1=O` (stereo not drawn) [Example 25, 2-(tert-butoxy)-2-[2-(3,4-dihydro-2H-1-benzopyran-6-yl)-3-(6-oxo-1-propyl-1,6-dihydropyridin-3-yl)-6-(trifluoromethyl)phenyl]acetic acid], the figure is 220 nM.

One may read the EC50 as the concentration needed to bring the measured effect to its halfway point. Low readings indicate higher potency in that assay, high ones lower potency in that assay.

Source of the values: patent US9475802B2, “Inhibitors of viral replication, their process of preparation and their therapeutical uses” (LABORATOIRE BIODIM, priority 2012, dated 2016).
